Data published in patent US8431593B2, “Heteroaryl amide derivatives” (H. Lundbeck A/S, priority 2006, dated 2013).

Biological target: T1, P2X7 receptor (Homo sapiens, UniProt Q99572)
T1 construct: host or cells: SH-SY5Y
T1 sequence (Q99572 1-595): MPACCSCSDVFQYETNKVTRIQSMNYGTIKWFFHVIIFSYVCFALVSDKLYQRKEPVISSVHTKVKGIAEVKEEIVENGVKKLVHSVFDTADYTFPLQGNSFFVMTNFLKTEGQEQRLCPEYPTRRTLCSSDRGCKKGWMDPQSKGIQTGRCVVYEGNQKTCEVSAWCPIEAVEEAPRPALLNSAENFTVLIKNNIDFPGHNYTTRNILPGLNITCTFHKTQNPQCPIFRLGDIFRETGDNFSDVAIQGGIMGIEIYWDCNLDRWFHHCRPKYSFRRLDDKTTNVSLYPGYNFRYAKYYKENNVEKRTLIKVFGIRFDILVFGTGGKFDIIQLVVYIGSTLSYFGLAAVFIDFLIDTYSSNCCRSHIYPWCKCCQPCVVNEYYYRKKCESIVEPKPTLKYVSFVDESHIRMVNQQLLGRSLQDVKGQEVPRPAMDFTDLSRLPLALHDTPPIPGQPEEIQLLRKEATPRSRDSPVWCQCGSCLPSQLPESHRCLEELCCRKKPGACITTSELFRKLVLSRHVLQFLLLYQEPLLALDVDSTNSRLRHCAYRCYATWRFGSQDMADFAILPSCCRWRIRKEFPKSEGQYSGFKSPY
Test: P2X7 calcium mobilization assay, high throughput, antagonist activity (Example 4A)
Assay type: cell-based
Conditions: fluorescence response of cells exposed to 80 μM 2′(3′)-O-(4-benzoyl-benzoyl)adenosine 5′-triphosphate; Example 4A; read-out: IC50
Procedure, shortened: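 Dye-loaded cells (100,000/well, seeded previous day) are pre-exposed to compound for an hour at room temperature. Fluorescence maxima are baseline-corrected against no-agonist wells and compared with the averaged agonist-well maximum.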

For `CNC1CCN(C(=O)c2cn3c(C(=O)NC[C@@H]4CC[C@H]5C[C@@H]4C5(C)C)cccc3n2)C1` (stereo partly drawn) [Compound 313, N-{[(1S,2R,5S)-6,6-dimethylbicyclo[3.1.1]hept-2-yl]methyl}-2-{[3-(methylamino)pyrrolidin-1-yl]carbonyl}imidazo[1,2-a]pyridine-5-carboxamide], the IC50 was less than 2000 nM.

Work on `CC1(C)[C@H]2CC[C@@H](CNC(=O)c3cccc4nc(C(=O)N5CCC(N)C5)cn34)[C@@H]1C2` (stereo partly drawn) [Compound 315, 2-[(3-aminopyrrolidin-1-yl)carbonyl]-N-{[(1S,2R,5S)-6,6-dimethylbicyclo[3.1.1]hept-2-yl]methyl}imidazo[1,2-a]pyridine-5-carboxamide] yielded an IC50 of less than 2000 nM.

`CN(C)CCN(C(=O)c1cn2c(C(=O)NC[C@@H]3CC[C@H]4C[C@@H]3C4(C)C)cccc2n1)C1CCNCC1(C)C` (stereo partly drawn) [Compound 319, 2-N-[2-(dimethylamino)ethyl]-5-N-{[(1S,2R,5S)-6,6-dimethylbicyclo[3.1.1]hept-2-yl]methyl}-2-N-(3,3-dimethylpiperidin-4-yl)imidazo[1,2-a]pyridine-2,5-dicarboxamide] was tested, and the IC50 was less than 2000 nM.

`CC1(C)[C@H]2CC[C@@H](CNC(=O)c3cccc4nc(C(=O)N5CCCC(CN)C5)cn34)[C@@H]1C2` (stereo partly drawn) [Compound 322, 2-{[3-(aminomethyl)piperidin-1-yl]carbonyl}-N-{[(1S,2R,5S)-6,6-dimethylbicyclo[3.1.1]hept-2-yl]methyl}imidazo[1,2-a]pyridine-5-carboxamide] was tested, and the IC50 was less than 2000 nM.

Compound `CC1(C)[C@H]2CC[C@@H](CNC(=O)c3cccc4nc(C(=O)N5CCCC5CN)cn34)[C@@H]1C2` (stereo partly drawn) [Compound 324, 2-{[2-(aminomethyl)pyrrolidin-1-yl]carbonyl}-N-{[(1S,2R,5S)-6,6-dimethylbicyclo[3.1.1]hept-2-yl]methyl}imidazo[1,2-a]pyridine-5-carboxamide] has an IC50 of less than 2000 nM.

`CC1(C)[C@H]2CC[C@@H](CNC(=O)c3cccc4nc(C(=O)N5CCCC(N)C5)cn34)[C@@H]1C2` (stereo partly drawn) [Compound 325, 2-[(3-aminopiperidin-1-yl)carbonyl]-N-{[(1S,2R,5S)-6,6-dimethylbicyclo[3.1.1]hept-2-yl]methyl}imidazo[1,2-a]pyridine-5-carboxamide] was tested, and the IC50 was less than 2000 nM.

`CC1(C)[C@H]2CC[C@@H](CNC(=O)c3cccc4nc(C(=O)N5CCC(N)CC5)cn34)[C@@H]1C2` [Compound 326, 2-[(4-aminopiperidin-1-yl)carbonyl]-N-{[(1S,2R,5S)-6.6-dimethylbicyclo[3.1.1]hept-2-yl]methyl}imidazo[1,2-a]pyridine-5-carboxamide] gave an IC50 of less than 2000 nM.

`CC1(C)[C@H]2CC[C@@H](CNC(=O)c3cccc4nc(C(=O)N5CC[C@H](N)C5)cn34)[C@@H]1C2` [Compound 330, 2-{[(3S)-3-aminopyrrolidin-1-yl]carbonyl}-N-{[(1S,2R,5S)-6.6-dimethylbicyclo{3.1.1]hept-2-yl]methyl}imidazo[1,2-a]pyridine-5-carboxamide] showed an IC50 of less than 2000 nM.

`CC1(C)[C@H]2CC[C@@H](CNC(=O)c3cccc4nc(C(=O)NC5CCNC5)cn34)[C@@H]1C2` (stereo partly drawn) [Compound 333, 5-N-{[(1S,2R,5S)-6,6-dimethylbicyclo[3.1.1]hept-2-yl]methyl}-2-N-pyrrolidin-3-ylimidazo[1,2-a]pyridine-2,5-dicarboxamide] showed an IC50 of less than 2000 nM.

`CC1(C)[C@H]2CC[C@@H](CNC(=O)c3cccc4nc(C(=O)N5C6CCC5CC(N)C6)cn34)[C@@H]1C2` (stereo partly drawn) [Compound 335, 2-[(3-amino-8-azabicyclo[3.2.1]oct-8-yl)carbonyl]-N-{[(1S,2R,5S)-6,6-dimethylbicyclo[3.1.1]hept-2-yl]methyl}imidazo[1,2-a]pyridine-5-carboxamide] showed an IC50 of less than 2000 nM.

For `CC1(C)[C@H]2CC[C@@H](CNC(=O)c3cccc4nc(C(=O)N5CCOC(CN)C5)cn34)[C@@H]1C2` (stereo partly drawn) [Compound 336, 2-{[2-(aminomethyl)morpholin-4-yl]carbonyl}-N-{[(1S,2R,5S)-6,6-dimethylbicyclo[3.1.1]hept-2-yl]methyl}imidazo[1,2-a]pyridine-5-carboxamide], the IC50 was less than 2000 nM.

Compound `CCOC(=O)C(C)c1cn2c(C(=O)NCC34CC5CC(CC(C5)C3)C4)cccc2n1` (centres unmarked) [Compound 338, ethyl 2-{5-[(adamantan-1-ylmethyl)carbamoyl]imidazo[1,2-a]pyridin-2-yl}propanoate] has an IC50 of less than 2000 nM.

For `Cc1cc(-c2cn3c(C(=O)NCC45CC6CC(CC(C6)C4)C5)cccc3n2)n(CCO)n1` [Compound 339, N-(adamantan-1-ylmethyl)-2-[1-(2-hydroxyethyl)-3-methyl-1H-pyrazol-5-yl]imidazo[1,2-a]pyridine-5-carboxamide], the IC50 was less than 2000 nM.

In the case of `Cc1cc(-c2cn3c(C(=O)NCC45CC6CC(CC(C6)C4)C5)cccc3n2)nn1CCO` [Compound 340, N-(adamantan-1-ylmethyl)-2-[1-(2-hydroxyethyl)-5-methyl-1H-pyrazol-3-yl]imidazo[1,2-a]pyridine-5-carboxamide], the IC50 is reported as less than 2000 nM.

`CCOC(=O)CN(C)Cc1cn2c(C(=O)NCC34CC5CC(CC(C5)C3)C4)cccc2n1` [Compound 341, ethyl N-({5-[(adamantan-1-ylmethyl)carbamoyl]imidazo[1,2-a]pyridin-2-yl}methyl)-N-methylglycinate] was tested, and the IC50 was less than 2000 nM.

For `O=C(O)CCSCc1cn2c(C(=O)NCC34CC5CC(CC(C5)C3)C4)cccc2n1` [Compound 342, 3-[({5-[(adamantan-1-ylmethyl)carbamoyl]imidazo[1,2-a]pyridin-2-yl}methyl)thio] propanoic acid], the IC50 was less than 2000 nM.

`O=C(NCCC1CC2CCC1C2)c1cccc2nc(CN3CCOCC3)cn12` (centres unmarked) [Compound 344, N-(2-bicyclo[2.2.1]hept-2-ylethyl)-2-(morpholin-4-ylmethyl)imidazo[1,2-a]pyridine-5-carboxamide] was tested, and the IC50 was less than 2000 nM.

In the case of `O=C(O)c1cccc(-c2cn3c(C(=O)NCC45CC6CC(CC(C6)C4)C5)cccc3n2)c1` [Compound 345, 3-{5-[(adamantan-1-ylmethyl)carbamoyl]imidazo[1,2-a]pyridin-2-yl} benzoic acid], the IC50 is reported as less than 2000 nM.

With `O=C(O)CCS(=O)(=O)Cc1cn2c(C(=O)NCC34CC5CC(CC(C5)C3)C4)cccc2n1` [Compound 346, 3-[({5-[(adamantan-1-ylmethyl)carbamoyl]imidazo[1,2-a]pyridin-2-yl}methyl)sulfonyl] propanoic acid] the IC50 was less than 2000 nM.

`Cc1cc(-c2cn3c(C(=O)NCC45CC6CC(CC(C6)C4)C5)cccc3n2)n(CC(=O)O)n1` [Compound 347, (5-{5-[(adamantan-1-ylmethyl)carbamoyl]imidazo[1,2-a]pyridin-2-yl}-3-methyl-1H-pyrazol-1-yl)acetic acid] gave an IC50 of less than 2000 nM.

`CN(CC(=O)O)Cc1cn2c(C(=O)NCC34CC5CC(CC(C5)C3)C4)cccc2n1` [Compound 348, N-({5-[(adamantan-1-ylmethyl)carbamoyl]imidazo[1,2-a]pyridin-2-yl}methyl)-N-methylglycine] gave an IC50 of less than 2000 nM.

`O=C(O)c1ccc(=O)n(Cc2cn3c(C(=O)NCC45CC6CC(CC(C6)C4)C5)cccc3n2)c1` [Compound 350, 1-({5-[(adamantan-1-ylmethyl)carbamoyl]imidazo[1,2-a]pyridin-2-yl}methyl)-6-oxo-1,6-dihydropyridine-3-carboxylic acid] showed an IC50 of less than 2000 nM.

With `O=C(O)c1cccn(Cc2cn3c(C(=O)NCC45CC6CC(CC(C6)C4)C5)cccc3n2)c1=O` [Compound 351, 1-({5-[(adamantan-1-ylmethyl)carbamoyl]imidazo[1,2-a]pyridin-2-yl}methyl)-2-oxo-1,2-dihydropyridine-3-carboxylic acid] the IC50 was less than 2000 nM.

`O=C(NCC12CC3CC(CC(C3)C1)C2)c1cccc2nc(CN3CCSCC3)cn12` [Compound 352, N-(adamantan-1-ylmethyl)-2-(thiomorpholin-4-ylmethyl)imidazo[1,2-a]pyridine-5-carboxamide] was tested, and the IC50 was less than 2000 nM.

In the case of `CC(=O)CCc1cn2c(C(=O)NCC34CC5CC(CC(C5)C3)C4)cccc2n1` [Compound 353, N-(adamantan-1-ylmethyl)-2-(3-oxobutyl)imidazo[l ,2-a]pyridine-5-carboxamide], the IC50 is reported as less than 2000 nM.

`C/C(CCc1cn2c(C(=O)NCC34CC5CC(CC(C5)C3)C4)cccc2n1)=N\O` [Compound 354, N-(adamantan-1-ylmethyl)-2-[(3E)-3-(hydroxyimino)butyl] imidazo[1,2-a]pyridine-5-carboxamide] gave an IC50 of less than 2000 nM.

With `O=C(O)c1ccn(Cc2cn3c(C(=O)NCC45CC6CC(CC(C6)C4)C5)cccc3n2)c(=O)c1` [Compound 355, 1-({5-[(adamantan-1-ylmethyl)carbamoyl]imidazo[1,2-a]pyridin-2-yl}methyl)-2-oxo-1,2-dihydropyridine-4-carboxylic acid] the IC50 was less than 2000 nM.

`CCOC(=O)N1CCN(C(=O)c2cn3c(NC(=O)CC45CC6CC(CC(C6)C4)C5)cccc3n2)CC1` [Compound 356, ethyl 4-({5-[(adamantan-1-ylacetyl)amino]imidazo [1,2-a]pyridin-2-yl}carbonyl) piperazine-1-carboxylate] was tested, and the IC50 was less than 2000 nM.

For `O=C(CC12CC3CC(CC(C3)C1)C2)Nc1cccc2nc(C(=O)N3CCCCC3)cn12` [Compound 357, 2-adamantan-1-yl-N-[2-(piperidin-1-ylcarbonyl)imidazo [1,2-a]pyridin-5-yl]acetamide], the IC50 was less than 2000 nM.
